Measurements reported in ChEMBL document CHEMBL4385641 (Bioorg Med Chem, 2019).

Assays:
Cannabinoid receptor 1 [1] = target: T1, Cannabinoid receptor 1 (Homo sapiens, UniProt P21554); test: Inverse agonist activity at human CB1 receptor expressed in CHOK1 cells co-expressing Galphaq16 assessed as apparent equilibrium constant after 90 secs by […]-4 AM dye-based FLIPR assay; assay type: cell-based
Cannabinoid receptor 1 [2] = target: T1, Cannabinoid receptor 1; test: Displacement of [3H]-CP55940 from human CB1 receptor expressed in CHO cell membranes
Cannabinoid receptor 2 = Cannabinoid receptor 2 (Homo sapiens, UniProt P34972); test: Displacement of [3H]-CP55940 from human CB2 receptor expressed in CHO cell membranes
Chain of Cannabinoid receptor 2 (P34972 whole entry): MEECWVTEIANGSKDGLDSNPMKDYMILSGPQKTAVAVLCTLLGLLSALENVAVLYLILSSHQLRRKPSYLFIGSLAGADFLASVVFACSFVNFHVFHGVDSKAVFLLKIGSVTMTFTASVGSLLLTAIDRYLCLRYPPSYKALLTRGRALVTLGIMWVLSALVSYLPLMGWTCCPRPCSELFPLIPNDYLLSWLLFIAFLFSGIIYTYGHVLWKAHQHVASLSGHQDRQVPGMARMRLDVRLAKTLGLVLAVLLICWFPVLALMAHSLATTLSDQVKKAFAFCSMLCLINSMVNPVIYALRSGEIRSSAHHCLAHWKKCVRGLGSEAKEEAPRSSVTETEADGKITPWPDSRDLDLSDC

Homo sapiens = species on record: Homo sapiens; test: Selectivity ratio of Ki for displacement of [3H]-CP55940 from human CB2 receptor expressed in CHO cell membranes to Ki for displacement of [3H]-CP55940 from human CB1 receptor expressed in CHO cell membranes
[3] = Permeability across apical to basolateral side in MDCK-MDR1 cells at 10 uM incubated for 1 hr by mass spectrometric method; assay type: ADME, cell-based, Canis lupus familiaris; conditions: dog, mdck-mdr1, 1 h
[4] = Half life in human liver microsomes at 1 uM by mass mass spectrometric method; assay type: ADME, Microsome; conditions: microsomes, 1 µM
[5] = Intrinsic clearance in human liver microsomes at 1 uM incubated for up to 120 mins by mass mass spectrometric method; assay type: ADME, Microsome; conditions: microsomes, 2 h, 1 µM

T1 sequence (P21554 whole entry): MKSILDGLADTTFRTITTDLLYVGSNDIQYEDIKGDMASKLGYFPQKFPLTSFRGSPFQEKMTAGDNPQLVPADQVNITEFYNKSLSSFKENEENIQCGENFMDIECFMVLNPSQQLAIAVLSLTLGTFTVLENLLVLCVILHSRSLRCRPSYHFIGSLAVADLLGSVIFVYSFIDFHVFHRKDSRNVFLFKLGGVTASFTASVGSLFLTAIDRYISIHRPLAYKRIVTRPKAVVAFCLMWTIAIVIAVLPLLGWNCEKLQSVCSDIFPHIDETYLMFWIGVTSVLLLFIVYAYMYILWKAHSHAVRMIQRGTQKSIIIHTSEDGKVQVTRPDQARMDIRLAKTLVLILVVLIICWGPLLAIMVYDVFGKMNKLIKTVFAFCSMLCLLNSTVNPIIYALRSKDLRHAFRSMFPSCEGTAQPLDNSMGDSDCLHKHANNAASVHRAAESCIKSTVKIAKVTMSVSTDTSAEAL

SMILES | Ke(app) (Cannabinoid receptor 1 [1]) [nM] | Ki (Cannabinoid receptor 1 [2]) [nM] | Ki (Cannabinoid receptor 2) [nM] | Ratio Ki (Homo sapiens) | other results
CC(=O)Nc1ccc(-n2c(-c3ccccc3Cl)nc3c(N4CCC(NS(=O)(=O)c5ccc(F)c(F)c5)CC4)ncnc32)cn1 | 2700 |  |  |  | 
O=S(=O)(NC1CCN(c2ncnc3c2nc(-c2ccccc2Cl)n3-c2ccc(C(F)(F)F)nc2)CC1)c1ccccc1F | 0.5 | 4 | 400 | 100 | 
Clc1ccc(-n2c(-c3ccccc3Cl)nc3c(N4CCC(Nc5ncccn5)CC4)ncnc32)cc1 | 43 |  |  |  | 
Cn1ccc(-n2c(-c3ccccc3Cl)nc3c(N4CCC(NS(=O)(=O)c5ccc(F)c(F)c5)CC4)ncnc32)n1 | 120 |  |  |  | 
O=C(NC1CCN(c2ncnc3c2nc(-c2ccccc2Cl)n3-c2ccc(C(F)(F)F)nc2)CC1)c1ccccc1 | 19 | 8 | 740 | 92 | permeability [3]: 3%
CCCCCS(=O)(=O)NC1CCN(c2ncnc3c2nc(-c2ccccc2Cl)n3-c2ccc(Cl)cc2)CC1 | 29 | 9 | 570 | 63 | permeability [3]: < 0.1%
COCCC(=O)NC1CCN(c2ncnc3c2nc(-c2ccccc2Cl)n3-c2ccc(Cl)cc2)CC1 | 370 |  |  |  | 
O=S(=O)(CC1CCCCC1)NC1CCN(c2ncnc3c2nc(-c2ccccc2Cl)n3-c2ccc(Cl)cc2)CC1 | 31 | 9 | > 10000 | > 1100 | permeability [3]: < 0.1%
CS(=O)(=O)CCC(=O)NC1CCN(c2ncnc3c2nc(-c2ccccc2Cl)n3-c2ccc(Cl)cc2)CC1 | 6000 |  |  |  | 
CCCCC(=O)NC1CCN(c2ncnc3c2nc(-c2ccccc2Cl)n3-c2ccc(C(F)(F)F)nc2)CC1 | 4 | 3 | 420 | 140 | permeability [3]: 28%
Cc1cc(-n2c(-c3ccccc3Cl)nc3c(N4CCC(NS(=O)(=O)c5ccc(F)c(F)c5)CC4)ncnc32)no1 | 56 | 420 | > 10000 | > 20 | 
O=C(NC1CCN(c2ncnc3c2nc(-c2ccccc2Cl)n3-c2ccc(Cl)cc2)CC1)OC1CCC1 | 1 | 0.6 | 1050 | 1800 | 
Nc1ccc(-n2c(-c3ccccc3Cl)nc3c(N4CCC(NS(=O)(=O)c5ccc(F)c(F)c5)CC4)ncnc32)cn1 | > 10000 |  |  |  | 
O=C(CN1CCCCC1)NC1CCN(c2ncnc3c2nc(-c2ccccc2Cl)n3-c2ccc(Cl)cc2)CC1 | 220 |  |  |  | 
O=C(NC1CCN(c2ncnc3c2nc(-c2ccccc2Cl)n3-c2ccc(Cl)cc2)CC1)C1CCOCC1 | 440 |  |  |  | 
O=S(=O)(NC1CCN(c2ncnc3c2nc(-c2ccccc2Cl)n3-c2ccc(C(F)(F)F)nc2)CC1)c1ccc(F)c(F)c1 | 1 | 10 | > 6000 | > 600 | 
O=C(NC1CCN(c2ncnc3c2nc(-c2ccccc2Cl)n3-c2ccc(Cl)cc2)CC1)OCC1COC1 | 77 |  |  |  | 
O=C(CN1CCOCC1)NC1CCN(c2ncnc3c2nc(-c2ccccc2Cl)n3-c2ccc(Cl)cc2)CC1 | 1100 |  |  |  | 
O=C(NC1CCN(c2ncnc3c2nc(-c2ccccc2Cl)n3-c2ccc(Cl)cc2)CC1)C1CCOC1 (stereo not drawn) | 150 |  |  |  | 

SMILES | Ke(app) (Cannabinoid receptor 1 [1]) [nM] | Ki (Cannabinoid receptor 1 [2]) [nM] | Ki (Cannabinoid receptor 2) [nM] | Ratio Ki (Homo sapiens) | other results
O=S(=O)(CCC(F)(F)F)NC1CCN(c2ncnc3c2nc(-c2ccccc2Cl)n3-c2ccc(Cl)cc2)CC1 | 12 | 4 | 420 | 105 | permeability [3]: 1%
Cn1cc(-n2c(-c3ccccc3Cl)nc3c(N4CCC(NS(=O)(=O)c5ccc(F)c(F)c5)CC4)ncnc32)cn1 | 140 |  |  |  | 
CCOCC(=O)NC1CCN(c2ncnc3c2nc(-c2ccccc2Cl)n3-c2ccc(Cl)cc2)CC1 | 240 |  |  |  | 
CC(C)(C)CC(=O)NC1CCN(c2ncnc3c2nc(-c2ccccc2Cl)n3-c2ccc(Cl)cc2)CC1 | 0.3 | 0.2 | 15 | 75 | 
O=C(NC1CCN(c2ncnc3c2nc(-c2ccccc2Cl)n3-c2ccc(Cl)cc2)CC1)OC1CCOCC1 | 320 |  |  |  | 
O=C(CC1CCOCC1)NC1CCN(c2ncnc3c2nc(-c2ccccc2Cl)n3-c2ccc(Cl)cc2)CC1 | 510 |  |  |  | 
COCCOC(=O)NC1CCN(c2ncnc3c2nc(-c2ccccc2Cl)n3-c2ccc(Cl)cc2)CC1 | 6 | 17 | > 5000 | > 200 | permeability [3]: 13%
NC(=O)c1ccc(-n2c(-c3ccccc3Cl)nc3c(N4CCC(NS(=O)(=O)c5ccc(F)c(F)c5)CC4)ncnc32)cc1 | 330 |  |  |  | 
O=C(NC1CCN(c2ncnc3c2nc(-c2ccccc2Cl)n3-c2ccc(Cl)cc2)CC1)OCc1ccccc1 | 3 | 4 | 710 | 180 | 
O=C(CC1CCOC1)NC1CCN(c2ncnc3c2nc(-c2ccccc2Cl)n3-c2ccc(Cl)cc2)CC1 (stereo not drawn) | 1000 |  |  |  | 
CN1CCC(COC(=O)NC2CCN(c3ncnc4c3nc(-c3ccccc3Cl)n4-c3ccc(Cl)cc3)CC2)CC1 | 1500 |  |  |  | 
CC(C)(C)OCCC(=O)NC1CCN(c2ncnc3c2nc(-c2ccccc2Cl)n3-c2ccc(Cl)cc2)CC1 | 1.7 | 6 | 4900 | 820 | permeability [3]: 20%
CC(C)(O)CC(=O)NC1CCN(c2ncnc3c2nc(-c2ccccc2Cl)n3-c2ccc(Cl)cc2)CC1 | 1700 |  |  |  | 
O=C(NC1CCN(c2ncnc3c2nc(-c2ccccc2Cl)n3-c2ccc(Cl)cc2)CC1)C1CCS(=O)(=O)CC1 | > 10000 |  |  |  | 
O=C(NC1CCN(c2ncnc3c2nc(-c2ccccc2Cl)n3-c2ccc(Cl)cc2)CC1)OC1COC1 | 92 |  |  |  | 
O=C(NC1CCN(c2ncnc3c2nc(-c2ccccc2Cl)n3-c2ccc(Cl)cc2)CC1)C1CCSCC1 | 26 | 3 | 1900 | 630 | 
O=S(=O)(NC1CCN(c2ncnc3c2nc(-c2ccccc2Cl)n3-c2cc(C(F)(F)F)[nH]n2)CC1)c1ccc(F)c(F)c1 | 5000 |  |  |  | 
O=S(=O)(NC1CCN(c2ncnc3c2nc(-c2ccccc2Cl)n3-c2ccc(OC(F)F)nc2)CC1)c1ccccc1F | 0.7 | 1.6 | 190 | 120 | 
Cn1nnnc1CCC(=O)NC1CCN(c2ncnc3c2nc(-c2ccccc2Cl)n3-c2ccc(Cl)cc2)CC1 | > 10000 |  |  |  | 

Continued, in another order:

Ke(app) (Cannabinoid receptor 1 [1]) [nM] | Ki (Cannabinoid receptor 1 [2]) [nM] | Ki (Cannabinoid receptor 2) [nM] | SMILES | Ratio Ki (Homo sapiens) | other results
34 |  | 2700 | CN(Cc1ccccc1)C1CCN(c2ncnc3c2nc(-c2ccccc2Cl)n3-c2ccc(Cl)cc2)CC1 | 64 | 
210 |  |  | Fc1ccc(CNC2CCN(c3ncnc4c3nc(-c3ccccc3Cl)n4-c3ccc(Cl)cc3)CC2)cc1 |  | 
1.1 | 3.3 | 9000 | O=S(=O)(NC1CCN(c2ncnc3c2nc(-c2ccccc2Cl)n3-c2ccc(Cl)cc2)CC1)c1ccc(F)cc1 | > 2000 | permeability [3]: 0.1%
 | 7 |  | O/N=C(\c1ccc(F)cc1)C1CCN(c2ncnc3c2nc(-c2ccccc2Cl)n3-c2ccc(Cl)cc2)CC1 (stereo in doubt; 21) [listing 1 of 2 here] |  | Ki (Cannabinoid receptor 2; cho): > 10000 nM; t1/2 [4]: 1.68 h; CLH [5]: 12 µL/min/mg
1.1 | 2 | 10000 | O=C(NC1CCN(c2ncnc3c2nc(-c2ccccc2Cl)n3-c2ccc(Cl)cc2)CC1)c1ccc(F)cc1 | 5000 | permeability [3]: 0.2%
2 |  | > 10000 | O=S(=O)(NC1CCN(c2ncnc3c2nc(-c2ccccc2Cl)n3-c2ccc(Cl)cc2)CC1)c1ccc(F)cc1F | > 5000 | permeability [3]: 0.1%
1.2 | 2 | > 7000 | O=C(NC1CCN(c2ncnc3c2nc(-c2ccccc2Cl)n3-c2ccc(Cl)cc2)CC1)c1ccc(F)cc1F | > 3500 | permeability [3]: < 0.1%
12 |  | 830 | Clc1ccc(-n2c(-c3ccccc3Cl)nc3c(N4CCC(c5nc6ccccc6[nH]5)CC4)ncnc32)cc1 | 18 | 
21 | 2.6 | > 10000 | O=S(=O)(NC1CCN(c2ncnc3c2nc(-c2ccccc2Cl)n3-c2ccc(F)cc2)CC1)c1ccccc1F | > 3000 | 
20 |  |  | O/N=C(\c1ccc(F)cc1)C1CCN(c2ncnc3c2nc(-c2ccccc2Cl)n3-c2ccc(Cl)cc2)CC1 (stereo in doubt; 20) | > 2000 | 
580 |  |  | Clc1ccc(-n2c(-c3ccccc3Cl)nc3c(N4CCC(NCc5ccncc5)CC4)ncnc32)cc1 |  | 
100 |  |  | Clc1ccc(-n2c(-c3ccccc3Cl)nc3c(N4CCC(Nc5ccncc5)CC4)ncnc32)cc1 |  | 
1.4 | 6 | > 10000 | Clc1ccc(-n2c(-c3ccccc3Cl)nc3c(N4CCC(Nc5ccccc5)CC4)ncnc32)cc1 | > 1600 | permeability [3]: 0%
140 |  |  | O=C(NC1CCN(c2ncnc3c2nc(-c2ccccc2Cl)n3-c2ccc(Cl)cc2)CC1)c1ccccn1 |  | 
150 |  |  | Clc1ccc(-n2c(-c3ccccc3Cl)nc3c(N4CCC(NCc5ccccc5)CC4)ncnc32)cc1 |  | 
21 |  |  | O/N=C(\c1ccc(F)cc1)C1CCN(c2ncnc3c2nc(-c2ccccc2Cl)n3-c2ccc(Cl)cc2)CC1 (stereo in doubt; 21) [listing 2 of 2 here] | > 1400 | 
460 |  |  | CN(Cc1ccc(F)cc1)C1CCN(c2ncnc3c2nc(-c2ccccc2Cl)n3-c2ccc(Cl)cc2)CC1 |  | 
2 | 3 | 150 | CC(C(=O)NC1CCN(c2ncnc3c2nc(-c2ccccc2Cl)n3-c2ccc(Cl)cc2)CC1)c1ccccc1 (stereo not drawn) | 50 | permeability [3]: < 0.1%
0.7 | 3 | 5900 | O=C(NC1CCN(c2ncnc3c2nc(-c2ccccc2Cl)n3-c2ccc(Cl)cc2)CC1)c1ccc(F)c(F)c1 | 2000 | permeability [3]: 0.2%
